Source: US11737977B2, “Cerasome delivery system for targeting activated CD44 molecule, preparation method and use thereof” (Beijing Inno Medicine Co., Ltd., priority 2017, dated 2023)

Experiments:
[1] = tested on: arterial vulnerable plaques; test: In vivo CT tracing of arterial vulnerable plaques, iodixanol; set-up: species or system mice; details: iodixanol 0.66 mg/kg, tail vein, CT 72 hours after administration; FIG. 16
Description: (1) A commercially available iodixanol bulk drug was used, and the cerasome delivery system HA-CL1@I loaded with a CT tracer, the cerasome delivery system HA-CL1@I+S loaded with a tracer and a CD44 activator, and the non-targeting cerasome delivery system CL1@I loaded with a tracer (as a comparative example) were prepared by the method described in the above Example 2.
(2) A mouse model of atherosclerotic vulnerable plaque was constructed according to the method described in Example 6 above.
(3) The model mice were fed with a high-fat diet (same as in Example 6) for 16 weeks. 30 model mice were randomly divided into the blank group (6 mice), the iodixanol group (6 mice, given the commercially available iodixanol bulk drug, and the dosage of iodixanol was 0.66 mg/kg body weight), the CL1@I group (6 mice, given CL1@I, and the dosage of iodixanol was 0.66 mg/kg body weight), the HA-CL1@I group (6 mice, given HA-CL1@I, and the dosage of iodixanol was 0.66 mg/kg body weight), and HA-CL1@I+S group (6 mice, given HA-CL1@I+S, the dosage of iodixanol was 0.66 mg/kg body weight, and the dosage of CD44 activator-LPS was about 0.023 mg/kg body weight). […]

[2] = oral, clinical practice; cited from earlier work
[3] = tested on: arterial vulnerable plaques; test: In vivo therapeutic effect on arterial vulnerable plaques (carotid MRI, percentage of plaque progression); set-up: species or system ApoE−/− mice; details: 5 mg rosuvastatin per kg, once every other day, 5 treatments; FIG. 14
[4] = biological target: T1, CD44 on the surface of endothelial cells at arterial vulnerable plaques (Mus musculus, UniProt P15379); test: Binding force integration of FL-ligand/antibody on endothelial cells (flow cytometry MFI); set-up: species or system mice; details: aminofluorescein-labeled ligand/antibody 10 mg/ml, 30 minutes, 37° C.
T1 construct: from tissue; host or cells: endothelial cells from arterial vulnerable plaques of atherosclerosis model mice
T1 sequence (P15379 23-778): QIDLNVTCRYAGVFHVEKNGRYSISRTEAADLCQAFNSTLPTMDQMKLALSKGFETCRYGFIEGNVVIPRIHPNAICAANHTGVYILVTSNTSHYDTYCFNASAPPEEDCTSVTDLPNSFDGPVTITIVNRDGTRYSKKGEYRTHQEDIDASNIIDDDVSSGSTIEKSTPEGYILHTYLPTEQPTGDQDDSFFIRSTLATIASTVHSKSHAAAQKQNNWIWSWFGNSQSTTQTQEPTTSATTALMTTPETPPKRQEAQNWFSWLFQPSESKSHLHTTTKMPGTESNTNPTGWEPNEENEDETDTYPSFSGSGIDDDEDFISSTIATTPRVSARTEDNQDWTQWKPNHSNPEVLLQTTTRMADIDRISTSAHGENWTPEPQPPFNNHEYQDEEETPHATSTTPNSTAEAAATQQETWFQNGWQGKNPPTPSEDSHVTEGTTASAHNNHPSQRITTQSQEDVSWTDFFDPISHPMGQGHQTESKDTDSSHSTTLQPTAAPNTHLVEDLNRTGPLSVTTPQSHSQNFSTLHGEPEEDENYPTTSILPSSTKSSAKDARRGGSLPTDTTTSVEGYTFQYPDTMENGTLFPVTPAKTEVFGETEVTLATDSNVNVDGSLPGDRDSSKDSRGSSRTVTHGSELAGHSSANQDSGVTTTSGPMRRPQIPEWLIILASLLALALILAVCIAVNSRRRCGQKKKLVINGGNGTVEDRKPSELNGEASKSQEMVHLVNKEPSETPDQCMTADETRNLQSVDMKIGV
Description: Endothelial cells at normal arterial vessel walls and endothelial cells at arterial vulnerable plaques of model mice were taken, and hyaluronic acid labeled with aminofluorescein at a concentration of 10 mg/ml (represented by “FL-HA”) was added, and the sample was cultured in Dulberic modified Eagle's medium (DMEM) (containing calf serum with a volume fraction of 10%, 100 U/ml penicillin, 100 U/ml streptomycin) at 37° C., in 5% CO2 incubator. After 30 minutes, the mean fluorescence intensity (MFI) was determined by flow cytometry (CytoFLEX, Beckman Coulter, U.S.A.), and the binding force integration of FL-HA on the surface of both cells was calculated (the binding force of endothelial cells of normal arterial vessel walls is set to 1).
Endothelial cells at normal arterial vessel walls and endothelial cells at arterial vulnerable plaques of model mice were taken, and the ligand/antibody labeled with aminofluorescein at a concentration of 10 mg/ml was added, the sample was cultured in Dulberic modified Eagle's medium (DMEM) (containing calf serum with a volume fraction of 10%, 100 U/ml penicillin, 100 U/ml streptomycin) at 37° C., in 5% CO2 incubator. After 30 minutes, the mean fluorescence intensity (MFI) was determined by flow cytometry (CytoFLEX, Beckman Coulter, U.S.A.), and the binding force integration of FL-ligand/antibody on the surface of both cells was calculated (the binding force of CD44 of endothelial cells of normal arterial vessel walls to ligand/antibody is set to 1).

[5] = biological target: T2, CD44 on the surface of macrophages inside arterial vulnerable plaques (Mus musculus, UniProt P15379); test: Binding force integration of FL-ligand/antibody on macrophages (flow cytometry MFI); set-up: species or system mice; details: aminofluorescein-labeled ligand/antibody 10 mg/ml, 30 minutes, 37° C.
T2 construct: from tissue; host or cells: macrophages from inside arterial vulnerable plaques of atherosclerosis model mice
T2 sequence (P15379 23-778): T1 sequence (P15379 23-778)
Description: Intraperitoneal macrophages and macrophages inside arterial vulnerable plaques of model mice were taken, and hyaluronic acid labeled with aminofluorescein at a concentration of 10 mg/ml (represented by “FL-HA”) was added, the sample was cultured in DMEM (containing calf serum with a volume fraction of 10%, 100 U/ml penicillin, 100 U/ml streptomycin) at 37° C., in 5% CO2 incubator.
Intraperitoneal macrophages and macrophages inside arterial vulnerable plaques of model mice were taken, and the ligand/antibody labeled with aminofluorescein at a concentration of 10 mg/ml was added, the sample was cultured in DMEM (containing calf serum with a volume fraction of 10%, 100 U/ml penicillin, 100 U/ml streptomycin) at 37° C., in 5% CO2 incubator.

| Molecule | binding force integration, endothelial cells at vulnerable plaques versus endothelial cells of normal arterial vessel walls (set to 1) [4] | binding force integration, macrophages inside vulnerable plaques versus macrophages outside the plaque (set to 1) [5] | tracing effect on arterial vulnerable plaques (CT) [1] | bioavailability when administered orally [2] | therapeutic effect on arterial vulnerable plaques (percentage of plaque progression) [3] |
| --- | --- | --- | --- | --- | --- |
| CC(=O)N(CC(O)CN(C(C)=O)c1c(I)c(C(=O)NCC(O)CO)c(I)c(C(=O)NCC(O)CO)c1I)c1c(I)c(C(=O)NCC(O)CO)c(I)c(C(=O)NCC(O)CO)c1I (stereo not shown) [iodixanol] | – | – | does not show any tracing effect | – | – |
| CC(C)c1nc(N(C)S(C)(=O)=O)nc(-c2ccc(F)cc2)c1/C=C/[C@@H](O)C[C@@H](O)CC(=O)O [rosuvastatin] | – | – | – | about 20% | shows a certain therapeutic effect, but it could not prevent the continued growth of vulnerable plaques |
| fibronectin | 18 times | 35 times | – | – | – |
| hyaluronic acid [HA, reference compound] | approximately 24 times | approximately 40 times | – | – | – |
| osteopontin: natural ligand for CD44 | 17 times | 33 times | – | – | – |

More lines, main results first:

| binding force integration, endothelial cells at vulnerable plaques versus endothelial cells of normal arterial vessel walls (set to 1) [4] | binding force integration, macrophages inside vulnerable plaques versus macrophages outside the plaque (set to 1) [5] | Molecule | tracing effect on arterial vulnerable plaques (CT) [1] | bioavailability when administered orally [2] | therapeutic effect on arterial vulnerable plaques (percentage of plaque progression) [3] |
| --- | --- | --- | --- | --- | --- |
| 21 times | 38 times | collagen | – | – | – |
| 16 times | 37 times | laminin | – | – | – |
